According to patent publication US20180148418A1, “AMIDO-SUBSTITUTED CYCLOHEXANE DERIVATIVES” (Bayer Pharma Aktiengesellschaft, priority 2015, published 2018):

Experiments:
[1] = test system: HEK293 cells cotransfected with the FOP control vector; assay: HEK293 FOP assay (control reporter with non-functional TCF elements); assay type: cell-based; details: Homo sapiens, 16 hours
Summary of the method: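 Stable HEK293 line carrying FOP control reporter (randomized non-functional TCF sites, with pcDNA3), Geneticin-selected, plated 24 h before assay. Stimulated with recombinant human Wnt-3a (2500-5 ng/ml) and compounds 50 μM–15 nM (3.16-fold steps) in CAFTY buffer pH 7.4 with 2 mM Ca2+, 0.01% BSA, run parallel to TOP line.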

TNKS2 = target: T1, TNKS2 (Homo sapiens, UniProt Q9H2K2); assay: TNKS2 Assay B (auto-parsylation, [3H]-NAD+ SPA); assay type: biochemical; details: 6 nM TNKS2, auto-parsylation, over night at room temperature
T1 construct: purchased BPS Bioscience, San Diego, USA 80572 (TNKS2 Histone Ribosylation Assay Kit)
T1 sequence (Q9H2K2 1-1166): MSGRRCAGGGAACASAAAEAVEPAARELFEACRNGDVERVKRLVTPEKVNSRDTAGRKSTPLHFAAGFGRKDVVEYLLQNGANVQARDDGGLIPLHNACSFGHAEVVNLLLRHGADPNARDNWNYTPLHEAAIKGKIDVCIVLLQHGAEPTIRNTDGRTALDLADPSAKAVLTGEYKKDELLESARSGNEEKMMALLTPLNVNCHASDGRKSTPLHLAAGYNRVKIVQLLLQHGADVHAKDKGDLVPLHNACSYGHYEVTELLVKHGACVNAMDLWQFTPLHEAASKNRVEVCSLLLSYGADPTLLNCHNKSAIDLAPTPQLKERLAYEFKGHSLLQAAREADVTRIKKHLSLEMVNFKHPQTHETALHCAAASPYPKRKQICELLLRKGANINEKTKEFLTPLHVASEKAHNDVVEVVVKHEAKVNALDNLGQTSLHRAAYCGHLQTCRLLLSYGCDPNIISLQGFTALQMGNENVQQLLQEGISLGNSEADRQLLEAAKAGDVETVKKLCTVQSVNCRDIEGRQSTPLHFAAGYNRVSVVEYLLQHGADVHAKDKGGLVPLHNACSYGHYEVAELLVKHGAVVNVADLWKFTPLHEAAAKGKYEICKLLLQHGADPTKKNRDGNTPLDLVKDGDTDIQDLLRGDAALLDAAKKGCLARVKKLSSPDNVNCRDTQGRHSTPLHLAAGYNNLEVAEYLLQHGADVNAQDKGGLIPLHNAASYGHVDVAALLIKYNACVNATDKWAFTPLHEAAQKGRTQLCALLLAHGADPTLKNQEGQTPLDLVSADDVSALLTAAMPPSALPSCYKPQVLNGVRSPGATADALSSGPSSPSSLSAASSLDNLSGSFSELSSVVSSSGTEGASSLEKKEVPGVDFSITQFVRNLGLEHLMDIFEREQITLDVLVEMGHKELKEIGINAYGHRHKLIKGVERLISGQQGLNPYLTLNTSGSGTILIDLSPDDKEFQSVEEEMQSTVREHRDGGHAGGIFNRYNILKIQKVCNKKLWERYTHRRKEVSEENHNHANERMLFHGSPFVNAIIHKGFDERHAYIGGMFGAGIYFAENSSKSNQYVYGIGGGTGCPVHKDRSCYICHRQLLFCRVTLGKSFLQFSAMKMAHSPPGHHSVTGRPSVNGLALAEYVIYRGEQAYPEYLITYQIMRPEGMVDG

SMILES	IC50 (TNKS2) [nM]	IC50 [1] [nM]
CCNC(=O)c1[nH]cnc1C(=O)N[C@H]1CC[C@@]2(CCN(c3ccc(F)cc3)C2=O)CC1 [Example 213, N^5-ethyl-N^4-[(trans)-2-(4-fluorophenyl)-1-oxo-2-azaspiro[4.5]dec-8-yl]-1H-imidazole-4,5-dicarboxamide]	220	30000
O=C(NCCO)c1nc[nH]c1C(=O)N[C@H]1CC[C@H](C(=O)Nc2ccc(F)cc2Cl)CC1 [Example 18, N^5-{trans-4-[(2-chloro-4-fluorophenyl)carbamoyl]cyclohexyl}-N^4-(2-hydroxyethyl)-1H-imidazole-4,5-dicarboxamide]	120	≥ 50000
Cc1cc(N(C)C(=O)[C@H]2CC[C@H](NC(=O)c3cnn4cccnc34)CC2)c(Cl)cc1F [Example 176, N-{trans-4-[(2-chloro-4-fluoro-5-methylphenyl)(methyl)carbamoyl]cyclohexyl}pyrazolo[1,5-a]pyrimidine-3-carboxamide]	130	5300
O=C(NCCN1CCOCC1)c1nc[nH]c1C(=O)N[C@H]1CC[C@H](C(=O)Nc2ccc(F)cc2Cl)CC1 [Example 13, N^5-{trans-4-[(2-chloro-4-fluorophenyl)carbamoyl]cyclohexyl}-N^4-[2-(morpholin-4-yl)ethyl]-1H-imidazole-4,5-dicarboxamide]	19	≥ 50000
Cc1ccccc1N(C)C(=O)[C@H]1CC[C@H](NC(=O)c2cnn3cccnc23)CC1 [Example 178, N-{trans-4-[methyl(2-methylphenyl)carbamoyl]cyclohexyl}pyrazolo[1,5-a]pyrimidine-3-carboxamide]	230	≥ 50000
CN(C)C(=O)c1nc[nH]c1C(=O)N[C@H]1CC[C@H](C(=O)Nc2ccc(F)cc2Cl)CC1 [Example 16, N^5-{trans-4-[(2-chloro-4-fluorophenyl)carbamoyl]cyclohexyl}-N^4,N^4-dimethyl-1H-imidazole-4,5-dicarboxamide]	1200	≥ 50000
O=C(NC1CC1)c1nc[nH]c1C(=O)N[C@H]1CC[C@H](C(=O)Nc2ccc(F)cc2Cl)CC1 [Example 17, N^5-{trans-4-[(2-chloro-4-fluorophenyl)carbamoyl]cyclohexyl}-N^4-cyclopropyl-1H-imidazole-4,5-dicarboxamide]	90	≥ 50000
O=C(NCC(F)(F)F)c1nc[nH]c1C(=O)N[C@H]1CC[C@@]2(CCN(c3cccc(Cl)c3)C2=O)CC1 [Example 281, N^5-[(trans)-2-(3-chlorophenyl)-1-oxo-2-azaspiro[4.5]dec-8-yl]-N^4-(2,2,2-trifluoroethyl)-1H-imidazole-4,5-dicarboxamide]	280	≥ 50000
COCCNC(=O)c1nc[nH]c1C(=O)N[C@H]1CC[C@@]2(CCN(c3cccc(Cl)c3)C2=O)CC1 [Example 282, N^5-[(trans)-2-(3-chlorophenyl)-1-oxo-2-azaspiro[4.5]dec-8-yl]-N^4-(2-methoxyethyl)-1H-imidazole-4,5-dicarboxamide]	160	8000
O=C(N[C@H]1CC[C@H](C(=O)Nc2ccc(F)cc2Cl)CC1)c1cnn2ccccc12 [Example 205, N-{trans-4-[(2-chloro-4-fluorophenyl)carbamoyl]cyclohexyl}pyrazolo[1,5-a]pyridine-3-carboxamide]	2500	25000
COCCNC(=O)c1nc[nH]c1C(=O)N[C@H]1CC[C@H](C(=O)Nc2ccc(F)cc2Cl)CC1 [Example 19, N^5-{trans-4-[(2-chloro-4-fluorophenyl)carbamoyl]cyclohexyl}-N^4-(2-methoxyethyl)-1H-imidazole-4,5-dicarboxamide]	160	≥ 50000
O=C(N[C@H]1CC[C@H](C(=O)N(CC2CC2)c2ccc(F)cc2Cl)CC1)c1cnn2cccnc12 [Example 177, N-{trans-4-[(2-chloro-4-fluorophenyl)(cyclopropylmethyl)carbamoyl]cyclohexyl}pyrazolo[1,5-a]pyrimidine-3-carboxamide]	9.2	40000

The next compounds have a lower IC50 (TNKS2) than those just listed; values first:

IC50 (TNKS2) [nM]	SMILES	IC50 [1] [nM]
7.2	CC1CCN(CCNC(=O)c2nc[nH]c2C(=O)N[C@H]2CC[C@H](C(=O)Nc3ccc(F)cc3Cl)CC2)CC1 [Example 12, N^5-{trans-4-[(2-chloro-4-fluorophenyl)carbamoyl]cyclohexyl}-N^4-[2-(4-methylpiperidin-1-yl)ethyl]-1H-imidazole-4,5-dicarboxamide]	≥ 50000
5.9	O=C(N[C@H]1CC[C@@]2(CCN(c3ccccc3Cl)C2=O)CC1)c1cnc2cccnn12 [Example 271, N-[(trans)-2-(2-chlorophenyl)-1-oxo-2-azaspiro[4.5]dec-8-yl]imidazo[1,2-b]pyridazine-3-carboxamide]	≥ 50000
5.2	Cc1cc(N2CC[C@]3(CC[C@@H](NC(=O)c4cnn5cccnc45)CC3)C2=O)c(Cl)cc1F [Example 267, N-[(trans)-2-(2-chloro-4-fluoro-5-methylphenyl)-1-oxo-2-azaspiro[4.5]dec-8-yl]pyrazolo[1,5-a]pyrimidine-3-carboxamide]	≥ 50000
4.8	COc1ccn2ncc(C(=O)N[C@H]3CC[C@@]4(CCN(c5ccc(F)cc5Cl)C4=O)CC3)c2n1 [Example 218, N-[(trans)-2-(2-chloro-4-fluorophenyl)-1-oxo-2-azaspiro[4.5]dec-8-yl]-5-methoxypyrazolo[1,5-a]pyrimidine-3-carboxamide]	≥ 50000
4.3	CN1CC(NC(=O)c2nc[nH]c2C(=O)N[C@H]2CC[C@@]3(CCN(c4ccc(F)cc4Cl)C3=O)CC2)C1 [Example 187, N^5-[(trans)-2-(2-chloro-4-fluorophenyl)-1-oxo-2-azaspiro[4.5]dec-8-yl]-N^4-(1-methylazetidin-3-yl)-1H-imidazole-4,5-dicarboxamide]	≥ 50000
3.1	O=C(NC1CCC2(CC1)CCN(c1cc(F)c(F)cc1Cl)C2=O)c1cnn2cccnc12 (single isomer, unassigned; isomer 1) [Example 168, N-[2-(2-chloro-4,5-difluorophenyl)-1-oxo-2-azaspiro[4.5]dec-8-yl]pyrazolo[1,5-a]pyrimidine-3-carboxamide (isomer 1)]	≥ 50000
3.1	CC(C)NC(=O)c1nc[nH]c1C(=O)N[C@H]1CC[C@@]2(CCN(c3cc(F)c(F)cc3Cl)C2=O)CC1 [Example 198, N^5-[(trans)-2-(2-chloro-4,5-difluorophenyl)-1-oxo-2-azaspiro[4.5]dec-8-yl]-N^4-(propan-2-yl)-1H-imidazole-4,5-dicarboxamide]	19000
3	O=C(NC1CC1)c1nc[nH]c1C(=O)N[C@H]1CC[C@@]2(CCN(c3cc(F)c(F)cc3Cl)C2=O)CC1 [Example 199, N^5-[(trans)-2-(2-chloro-4,5-difluorophenyl)-1-oxo-2-azaspiro[4.5]dec-8-yl]-N^4-cyclopropyl-1H-imidazole-4,5-dicarboxamide]	21000
2.6	O=C(N[C@H]1CC[C@@]2(CCN(c3cc(F)c(F)cc3Cl)C2=O)CC1)c1[nH]cnc1C(=O)N1CC(F)C1 [Example 200, N-[(trans)-2-(2-chloro-4,5-difluorophenyl)-1-oxo-2-azaspiro[4.5]dec-8-yl]-4-[(3-fluoroazetidin-1-yl)carbonyl]-1H-imidazole-5-carboxamide]	30000
2.4	CNC(=O)c1nc[nH]c1C(=O)N[C@H]1CC[C@@]2(CCN(c3cc(F)c(F)cc3Cl)C2=O)CC1 [Example 196, N^5-[(trans)-2-(2-chloro-4,5-difluorophenyl)-1-oxo-2-azaspiro[4.5]dec-8-yl]-N^4-methyl-1H-imidazole-4,5-dicarboxamide]	35000
2.2	O=C(NCC(F)(F)F)c1nc[nH]c1C(=O)N[C@H]1CC[C@@]2(CCN(c3cc(F)c(F)cc3Cl)C2=O)CC1 [Example 201, N^5-[(trans)-2-(2-chloro-4,5-difluorophenyl)-1-oxo-2-azaspiro[4.5]dec-8-yl]-N^4-(2,2,2-trifluoroethyl)-1H-imidazole-4,5-dicarboxamide]	22000
